One assay deals with C666-1 cells. Briefly: C666-1 cell viability single concentration (50 μM) inhibition rate (Resazurin). The following applies: 50 μM compound, 72 hours, C666-1 cells. The assay is classed as cell-based. Summed up:
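Resazurin fluorescence (560/590 nm, 3 h development) gave the proliferation inhibition rate, normalised to DMSO-treated and cell-free blank wells. Compound was tested at a single 50 μmol/L final concentration on C666-1 cells for 72 h at 37° C, with duplicate wells, after 24 h seeding.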
In general terms: Alamar Blue is a resazurin reagent that responds to reducing activity.
For `COC(=O)c1cccc(C#CN(Cc2ccc(F)cc2)S(=O)(=O)c2ccc(C)cc2)c1-n1cccc1` [Example 344], the “C666-1 cell viability single concentration (50 μM) inhibition rate, Ratio* (Inh %)” value is reported as “+ (*Inh %: <10% +)”.

The assay is the same for the next values; noted with them: Homo sapiens, C6661, 72 h, 50 μM compound, 72 hours, C666-1 cells; read-out: C666-1 cell viability single concentration (50 μM) inhibition rate, Ratio* (Inh %).
Regarding `CC(=O)NCCOc1ccc(OC2CN(c3cccc(C(=O)O)c3-n3cccc3)C2)cc1` [Example 313, 3-(3-(4-(2-acetylaminoethoxy)phenoxy)azetidin-1-yl)-2-(1H-pyrrol-1-yl)benzoic acid], the inhibition at 50 µM was < 10%.
Consider `COC(=O)c1cccc(C#CN(Cc2ccco2)S(=O)(=O)c2ccc(C)cc2)c1-n1cccc1` [Example 314, Methyl 3-(((N-(furan-2-yl-methyl)-4-methylphenyl)sulfonamido)ethynyl)-2-(1H-pyrrol-1-yl)benzoate], for which the inhibition at 50 µM is < 10%.
Take `COC(=O)c1cccc(C#CN(Cc2ccc3c(ccn3C)c2)S(=O)(=O)c2ccc(C)cc2)c1-n1cccc1` [Example 316, Methyl 3-(((4-methyl-N-((1-methyl-1H-indol-5-yl)methyl)phenyl)sulfonamido)ethynyl)-2-(1H-pyrrol-1-yl)benzoate]: the inhibition at 50 µM was < 10%.
Regarding `COC(=O)c1cccc(C#CN(CC2CCN(C)CC2)S(=O)(=O)c2ccc(C)cc2)c1-n1cccc1` [Example 318, Methyl 3-(((4-methyl-N-((1-methylpiperidin-4-yl)methyl)phenyl)sulfonamido)ethynyl)-2-(1H-pyrrol-1-yl)benzoate], the inhibition at 50 µM was > 50%.
Consider `COC(=O)c1cccc(C#CN(Cc2ccccc2)S(=O)(=O)c2csc3ccccc23)c1-n1cccc1` [Example 320, Methyl 3-((N-benzylbenzo[b]thiophen-3-sulfonamido)ethynyl)-2-(1H-pyrrol-1-yl)benzoate], for which the inhibition at 50 µM is < 10%.
Take `COC(=O)c1cccc(C#CN(Cc2ccccc2)S(=O)(=O)c2cccs2)c1-n1cccc1` [Example 322, Methyl 3-((N-benzylthiophen-2-sulfonamido)ethynyl)-2-(1H-pyrrol-1-yl)benzoate]: the inhibition at 50 µM fell in the range of 10 to 30%.
For the compound `COC(=O)c1cccc(C#CN(Cc2ccccc2F)S(=O)(=O)c2cccs2)c1-n1cccc1` [Example 324, Methyl 3-((N-(2-fluorobenzyl)thiophen-2-sulfonamido)ethynyl)-2-(1H-pyrrol-1-yl)benzoate], the inhibition at 50 µM lay in the range of 10 to 30%.
For `COC(=O)c1cccc(C#CN(Cc2ccc(F)cc2)S(=O)(=O)c2cccs2)c1-n1cccc1` [Example 326, Methyl 3-((N-(4-fluorobenzyl)thiophen-2-sulfonamido)ethynyl)-2-(1H-pyrrol-1-yl)benzoate], the inhibition at 50 µM is 30 to 50%.
On to `COC(=O)c1cccc(C#CN(Cc2cccs2)S(=O)(=O)c2ccc(C)cc2)c1-n1cccc1` [Example 328, Methyl 3-(((4-methyl-N-(thiophen-2-yl-methyl)phenyl)sulfonamido)ethynyl)-2-(1H-pyrrol-1-yl)benzoate], for which the inhibition at 50 µM is 10 to 30%.
For the compound `COC(=O)c1cccc(C#CN(Cc2ccccc2)S(=O)(=O)c2ccc3occc3c2)c1-n1cccc1` [Example 330, Methyl 3-((N-benzylbenzofuran-5-sulfonamido)ethynyl)-2-(1H-pyrrol-1-yl)benzoate], the inhibition at 50 µM is > 50%.
In the case of `COC(=O)c1cccc(C#CN(Cc2ccc(CO)cc2)S(=O)(=O)c2ccc(C)cc2)c1-n1cccc1` [Example 332, Methyl 3-(((N-(4-(hydroxymethyl)benzyl)-4-methylphenyl)sulfonamido)ethynyl)-2-(1H-pyrrol-1-yl)benzoate], the inhibition at 50 µM is > 50%.
The same measure, in the same setting: for `COC(=O)c1cccc(C#CN(Cc2ccc3c(ccn3C)c2)S(=O)(=O)c2csc3ccccc23)c1-n1cccc1` [Example 334, Methyl 3-((N-((1-methyl-1H-indol-5-yl)methyl)benzo[b]thiophen-3-sulfonamido)ethynyl)-2-(1H-pyrrol-1-yl)benzoate] the value was > 50%.
With `COC(=O)c1cccc(C#CN(Cc2ccc(C(F)(F)F)cc2)S(=O)(=O)c2cccs2)c1-n1cccc1` [Example 336, Methyl 3-((N-(4-(trifluoromethyl)benzyl)thiophen-2-sulfonamido)ethynyl)-2-(1H-pyrrol-1-yl)benzoate], the inhibition at 50 µM is < 10%.
Take `COC(=O)c1cccc(C#CN(Cc2ccc3c(ccn3C)c2)S(=O)(=O)c2ccc3occc3c2)c1-n1cccc1` [Example 338, Methyl 3-((N-((1-methyl-1H-indol-5-yl)methyl)benzofuran-5-sulfonamido)ethynyl)-2-(1H-pyrrol-1-yl)benzoate]: the inhibition at 50 µM was < 10%.
For the compound `COC(=O)c1cccc(C#CN(Cc2ccccc2)S(=O)(=O)c2ccccc2)c1-n1cccc1` [Example 340, Methyl 3-((N-benzyl-N-phenylsulfonamido)ethynyl)-2-(1H-pyrrol-1-yl)benzoate], the inhibition at 50 µM was < 10%.
For `COC(=O)c1cccc(C#CN(Cc2ccc(C)cc2)S(=O)(=O)c2ccc(C)cc2)c1-n1cccc1` [Example 342], the inhibition at 50 µM is < 10%.
`COC(=O)c1cccc(C#CN(Cc2ccc(C(F)(F)F)cc2)S(=O)(=O)c2ccc(C)cc2)c1-n1cccc1` [Example 346]: the inhibition at 50 µM lay within 10 to 30%.

Staying with this assay, now noted: Homo sapiens, C6661, 72 h, read-out: C666-1 cell viability single concentration (50 μM) inhibition rate, Ratio* (Inh %).
Consider `Cc1ccc(S(=O)(=O)N(C#Cc2cccc(C(=O)O)c2-n2cccc2)Cc2ccco2)cc1` [Example 315, Lithium 3-(((N-(furan-2-yl-methyl)-4-methylphenyl)sulfonamido)ethynyl)-2-(1H-pyrrol-1-yl)benzoate], for which the inhibition at 50 µM was > 50%.
Still for that read-out and setting: under `Cc1ccc(S(=O)(=O)N(C#Cc2cccc(C(=O)O)c2-n2cccc2)Cc2ccc3c(ccn3C)c2)cc1` [Example 317, Lithium 3-(((4-methyl-N-((1-methyl-1H-indol-5-yl)methyl)phenyl)sulfonamido)ethynyl)-2-(1H-pyrrol-1-yl)benzoate] stands 10 to 30%.
As for `Cc1ccc(S(=O)(=O)N(C#Cc2cccc(C(=O)O)c2-n2cccc2)CC2CCN(C)CC2)cc1` [Example 319, Lithium 3-(((4-methyl-N-((1-methylpiperidin-4-yl)methyl)phenyl)sulfonamido)ethynyl)-2-(1H-pyrrol-1-yl)benzoate], the inhibition at 50 µM was > 50%.
The same measure, in the same setting: for `O=C(O)c1cccc(C#CN(Cc2ccccc2)S(=O)(=O)c2csc3ccccc23)c1-n1cccc1` [Example 321, Lithium 3-((N-benzylbenzo[b]thiophen-3-sulfonamido)ethynyl)-2-(1H-pyrrol-1-yl)benzoate] the value was < 10%; for `O=C(O)c1cccc(C#CN(Cc2ccccc2)S(=O)(=O)c2cccs2)c1-n1cccc1` [Example 323, Lithium 3-((N-benzylthiophen-2-sulfonamido)ethynyl)-2-(1H-pyrrol-1-yl)benzoate], < 10%.
Consider `O=C(O)c1cccc(C#CN(Cc2ccccc2F)S(=O)(=O)c2cccs2)c1-n1cccc1` [Example 325, Lithium 3-((N-(2-fluorobenzyl)thiophen-2-sulfonamido)ethynyl)-2-(1H-pyrrol-1-yl)benzoate], for which the inhibition at 50 µM fell in the range of 30 to 50%.
`O=C(O)c1cccc(C#CN(Cc2ccc(F)cc2)S(=O)(=O)c2cccs2)c1-n1cccc1` [Example 327, Lithium 3-((N-(4-fluorobenzyl)thiophen-2-sulfonamido)ethynyl)-2-(1H-pyrrol-1-yl)benzoate]: the inhibition at 50 µM is > 50%.
Consider `Cc1ccc(S(=O)(=O)N(C#Cc2cccc(C(=O)O)c2-n2cccc2)Cc2cccs2)cc1` [Example 329, Lithium 3-(((4-methyl-N-(thiophen-2-yl-methyl)phenyl)sulfonamido)ethynyl)-2-(1H-pyrrol-1-yl)benzoate], for which the inhibition at 50 µM was > 50%.
Take `O=C(O)c1cccc(C#CN(Cc2ccccc2)S(=O)(=O)c2ccc3occc3c2)c1-n1cccc1` [Example 331, Lithium 3-((N-benzylbenzofuran-5-sulfonamido)ethynyl)-2-(1H-pyrrol-1-yl)benzoate]: the inhibition at 50 µM is < 10%.
Turning to `Cc1ccc(S(=O)(=O)N(C#Cc2cccc(C(=O)O)c2-n2cccc2)Cc2ccc(CO)cc2)cc1` [Example 333, Lithium 3-(((N-(4-(hydroxymethyl)benzyl)-4-methylphenyl)sulfonamido)ethynyl)-2-(1H-pyrrol-1-yl)benzoate], the inhibition at 50 µM was > 50%.
As for `Cn1ccc2cc(CN(C#Cc3cccc(C(=O)O)c3-n3cccc3)S(=O)(=O)c3csc4ccccc34)ccc21` [Example 335, Lithium 3-((N-((1-methyl-1H-indol-5-yl)methyl)benzo[b]thiophen-3-sulfonamido)ethynyl)-2-(1H-pyrrol-1-yl)benzoate], the inhibition at 50 µM is < 10%.
Take `O=C(O)c1cccc(C#CN(Cc2ccc(C(F)(F)F)cc2)S(=O)(=O)c2cccs2)c1-n1cccc1` [Example 337, Lithium 3-((N-(4-(trifluoromethyl)benzyl)thiophen-2-sulfonamido)ethynyl)-2-(1H-pyrrol-1-yl)benzoate]: the inhibition at 50 µM was in the range of 10 to 30%.
On the same count and under the same terms, under `Cn1ccc2cc(CN(C#Cc3cccc(C(=O)O)c3-n3cccc3)S(=O)(=O)c3ccc4occc4c3)ccc21` [Example 339, Lithium 3-((N-((1-methyl-1H-indol-5-yl)methyl)benzofuran-5-sulfonamido)ethynyl)-2-(1H-pyrrol-1-yl)benzoate] stands < 10%; under `O=C(O)c1cccc(C#CN(Cc2ccccc2)S(=O)(=O)c2ccccc2)c1-n1cccc1` [Example 341, 3-((N-benzyl-N-phenylsulfonamido)ethynyl)-2-(1H-pyrrol-1-yl)benzoic acid], < 10%; under `Cc1ccc(CN(C#Cc2cccc(C(=O)O)c2-n2cccc2)S(=O)(=O)c2ccc(C)cc2)cc1` [Example 343], < 10%.
In the case of `Cc1ccc(S(=O)(=O)N(C#Cc2cccc(C(=O)O)c2-n2cccc2)Cc2ccc(C(F)(F)F)cc2)cc1` [Example 347], the inhibition at 50 µM lay in the range of 30 to 50%.

Source of the values: US20230157996A1, “SMALL-MOLECULE INHIBITOR TARGETING EB VIRUS NUCLEAR ANTIGEN PROTEIN, PREPARATION METHOD AND USE THEREOF” (priority 2020, published 2023).
